In ChEMBL document CHEMBL3885881, “DrugMatrix”:

Species: Rattus norvegicus
Experiment: DrugMatrix - Regimen: Daily Repeat
Assay type: toxicity, organism-based, Sprague-Dawley
Design: regimen Daily Repeat, gender Male, age 6-8 weeks
Conditions: in vivo, po, route oral GAVAGE, […]; for ABSOLUTE BASOPHIL / BASOPHIL / NUCLEATED RED BLOOD CELLS / ABSOLUTE EOSINOPHIL / ABSOLUTE LYMPHOCYTE / ABSOLUTE MONOCYTE / ABSOLUTE SEGMENTED NEUTROPHIL / EOSINOPHIL / ERYTHROCYTE COUNT / HEMATOCRIT / HEMOGLOBIN / LEUKOCYTE COUNT / LYMPHOCYTE / MEAN CORPUSCULAR HEMOGLOBIN / MEAN CORPUSCULAR HEMOGLOBIN CONCENTRATION / MEAN CORPUSCULAR VOLUME / MONOCYTE / NEUTROPHIL / PLATELET COUNT: tissue Blood; for ALANINE AMINOTRANSFERASE / ALBUMIN / ALKALINE PHOSPHATASE / ASPARTATE AMINOTRANSFERASE / BLOOD UREA NITROGEN / CARBON DIOXIDE / CHLORIDE / CHOLESTEROL / CREATINE PHOSPHOKINASE / CREATININE / GLUCOSE / LACTATE DEHYDROGENASE / LIPASE / PHOSPHORUS / POTASSIUM / SODIUM / TOTAL BILIRUBIN / TOTAL PROTEIN / URIC ACID: tissue Plasma
[1] = 0 mg/kg, 72 h, dose level Control, time 3 day
[2] = 0 mg/kg, 120 h, dose level Control, time 5 day
[3] = 52 mg/kg, 72 h, dose level Low, time 3 day
[4] = 52 mg/kg, 120 h, dose level Low, time 5 day
[5] = 89 mg/kg, 72 h, dose level M1, time 3 day
[6] = 89 mg/kg, 120 h, dose level M1, time 5 day

Clc1ccccc1C(c1ccccc1)(c1ccccc1)n1ccnc1 [CLOTRIMAZOLE]
ABSOLUTE BASOPHIL [1]: 0 CELLS/uL
BASOPHIL [1]: 0%
NUCLEATED RED BLOOD CELLS [1]: 0 /100WBC
ABSOLUTE BASOPHIL [2]: 0 CELLS/uL
BASOPHIL [2]: 0%
ABSOLUTE BASOPHIL [3]: 0 CELLS/uL
ABSOLUTE EOSINOPHIL [3]: 0 CELLS/uL
ABSOLUTE LYMPHOCYTE [3]: 7378.33 CELLS/uL
ABSOLUTE MONOCYTE [3]: 76.67 CELLS/uL
ABSOLUTE SEGMENTED NEUTROPHIL [3]: 611.67 CELLS/uL
BASOPHIL [3]: 0%
EOSINOPHIL [3]: 0%
ERYTHROCYTE COUNT [3]: 4.96 x10E6/uL
HEMATOCRIT [3]: 32.7%
HEMOGLOBIN [3]: 12.97 G/DL
LEUKOCYTE COUNT [3]: 8.07 x10E3/uL
LYMPHOCYTE [3]: 91.33%
MEAN CORPUSCULAR HEMOGLOBIN [3]: 26.17 pg
MEAN CORPUSCULAR HEMOGLOBIN CONCENTRATION [3]: 39.67 G/DL
MEAN CORPUSCULAR VOLUME [3]: 65.97 fL
MONOCYTE [3]: 1%
NEUTROPHIL [3]: 7.67%
NUCLEATED RED BLOOD CELLS [3]: 0 /100WBC
PLATELET COUNT [3]: 996.33 x10E3/uL
ALANINE AMINOTRANSFERASE [3]: 116 u/L
ALBUMIN [3]: 3.73 G/DL
ALKALINE PHOSPHATASE [3]: 475.33 u/L
ASPARTATE AMINOTRANSFERASE [3]: 102.67 u/L
BLOOD UREA NITROGEN [3]: 13.33 mg/dL
CARBON DIOXIDE [3]: 38 mmol/L
CHLORIDE [3]: 99 MEQ/L
CHOLESTEROL [3]: 69.33 mg/dL
CREATINE PHOSPHOKINASE [3]: 256 u/L
CREATININE [3]: 0.12 mg/dL
GLUCOSE [3]: 158 mg/dL
LACTATE DEHYDROGENASE [3]: 99 u/L
LIPASE [3]: 11 u/L
PHOSPHORUS [3]: 9.1 mg/dL
POTASSIUM [3]: 5.46 MEQ/L
SODIUM [3]: 142.67 MEQ/L
TOTAL BILIRUBIN [3]: 0.17 mg/dL
TOTAL PROTEIN [3]: 5.43 G/DL
URIC ACID [3]: 0.57 mg/dL
ABSOLUTE BASOPHIL [4]: 0 CELLS/uL
ABSOLUTE EOSINOPHIL [4]: 0 CELLS/uL
ABSOLUTE LYMPHOCYTE [4]: 8088.33 CELLS/uL
ABSOLUTE MONOCYTE [4]: 127.33 CELLS/uL
ABSOLUTE SEGMENTED NEUTROPHIL [4]: 651 CELLS/uL
BASOPHIL [4]: 0%
EOSINOPHIL [4]: 0%
ERYTHROCYTE COUNT [4]: 5.31 x10E6/uL
HEMATOCRIT [4]: 34.07%
HEMOGLOBIN [4]: 13.3 G/DL
LEUKOCYTE COUNT [4]: 8.87 x10E3/uL
LYMPHOCYTE [4]: 91.67%
MEAN CORPUSCULAR HEMOGLOBIN [4]: 25.1 pg
MEAN CORPUSCULAR HEMOGLOBIN CONCENTRATION [4]: 39.1 G/DL
MEAN CORPUSCULAR VOLUME [4]: 64.2 fL
MONOCYTE [4]: 1.33%
NEUTROPHIL [4]: 7%
NUCLEATED RED BLOOD CELLS [4]: 0 /100WBC
PLATELET COUNT [4]: 1063.67 x10E3/uL
ALANINE AMINOTRANSFERASE [4]: 68 u/L
ALBUMIN [4]: 3.9 G/DL
ALKALINE PHOSPHATASE [4]: 421.33 u/L
ASPARTATE AMINOTRANSFERASE [4]: 83.33 u/L
BLOOD UREA NITROGEN [4]: 13.33 mg/dL
CARBON DIOXIDE [4]: 27.33 mmol/L
CHLORIDE [4]: 104.33 MEQ/L
CHOLESTEROL [4]: 79.67 mg/dL
CREATINE PHOSPHOKINASE [4]: 203.67 u/L
CREATININE [4]: 0.34 mg/dL
GLUCOSE [4]: 183 mg/dL
LACTATE DEHYDROGENASE [4]: 97.67 u/L
LIPASE [4]: 12.67 u/L
PHOSPHORUS [4]: 12.3 mg/dL
POTASSIUM [4]: 5.8 MEQ/L
SODIUM [4]: 144.6 MEQ/L
TOTAL BILIRUBIN [4]: 0.1 mg/dL
TOTAL PROTEIN [4]: 6.03 G/DL
URIC ACID [4]: 0.63 mg/dL
ABSOLUTE BASOPHIL [5]: 0 CELLS/uL
ABSOLUTE EOSINOPHIL [5]: 25.67 CELLS/uL
ABSOLUTE LYMPHOCYTE [5]: 8596 CELLS/uL
ABSOLUTE MONOCYTE [5]: 0 CELLS/uL
ABSOLUTE SEGMENTED NEUTROPHIL [5]: 345 CELLS/uL
BASOPHIL [5]: 0%
EOSINOPHIL [5]: 0.33%
ERYTHROCYTE COUNT [5]: 5.65 x10E6/uL
HEMATOCRIT [5]: 35.6%
HEMOGLOBIN [5]: 13.1 G/DL
LEUKOCYTE COUNT [5]: 8.97 x10E3/uL
LYMPHOCYTE [5]: 95.33%
MEAN CORPUSCULAR HEMOGLOBIN [5]: 23.17 pg
MEAN CORPUSCULAR HEMOGLOBIN CONCENTRATION [5]: 36.8 G/DL
MEAN CORPUSCULAR VOLUME [5]: 63.03 fL
MONOCYTE [5]: 0%
NEUTROPHIL [5]: 4.33%
NUCLEATED RED BLOOD CELLS [5]: 0 /100WBC
PLATELET COUNT [5]: 1000.33 x10E3/uL
ALANINE AMINOTRANSFERASE [5]: 74.67 u/L
ALBUMIN [5]: 3.87 G/DL
ALKALINE PHOSPHATASE [5]: 348.33 u/L
ASPARTATE AMINOTRANSFERASE [5]: 101.33 u/L
BLOOD UREA NITROGEN [5]: 15.67 mg/dL
CARBON DIOXIDE [5]: 31.33 mmol/L
CHLORIDE [5]: 99.67 MEQ/L
CHOLESTEROL [5]: 51 mg/dL
CREATINE PHOSPHOKINASE [5]: 324.67 u/L
CREATININE [5]: 0.17 mg/dL
GLUCOSE [5]: 143.67 mg/dL
LACTATE DEHYDROGENASE [5]: 156.33 u/L
LIPASE [5]: 11 u/L
PHOSPHORUS [5]: 10.37 mg/dL
POTASSIUM [5]: 5.81 MEQ/L
SODIUM [5]: 144 MEQ/L
TOTAL BILIRUBIN [5]: 0.13 mg/dL
TOTAL PROTEIN [5]: 5.63 G/DL
URIC ACID [5]: 0.4 mg/dL
ABSOLUTE BASOPHIL [6]: 0 CELLS/uL
ABSOLUTE EOSINOPHIL [6]: 0 CELLS/uL
ABSOLUTE LYMPHOCYTE [6]: 14137.33 CELLS/uL
ABSOLUTE MONOCYTE [6]: 157.33 CELLS/uL
ABSOLUTE SEGMENTED NEUTROPHIL [6]: 1305.33 CELLS/uL
BASOPHIL [6]: 0%
EOSINOPHIL [6]: 0%
ERYTHROCYTE COUNT [6]: 5.79 x10E6/uL
HEMATOCRIT [6]: 36.4%
HEMOGLOBIN [6]: 13.37 G/DL
LEUKOCYTE COUNT [6]: 15.6 x10E3/uL
LYMPHOCYTE [6]: 91%
MEAN CORPUSCULAR HEMOGLOBIN [6]: 23.1 pg
MEAN CORPUSCULAR HEMOGLOBIN CONCENTRATION [6]: 36.73 G/DL
MEAN CORPUSCULAR VOLUME [6]: 62.87 fL
MONOCYTE [6]: 1%
NEUTROPHIL [6]: 8%
NUCLEATED RED BLOOD CELLS [6]: 0 /100WBC
PLATELET COUNT [6]: 1140.67 x10E3/uL
ALANINE AMINOTRANSFERASE [6]: 77.33 u/L
ALBUMIN [6]: 4.17 G/DL
ALKALINE PHOSPHATASE [6]: 461 u/L
ASPARTATE AMINOTRANSFERASE [6]: 103 u/L
BLOOD UREA NITROGEN [6]: 13.67 mg/dL
CARBON DIOXIDE [6]: 23.67 mmol/L
CHLORIDE [6]: 102 MEQ/L
CHOLESTEROL [6]: 58 mg/dL
CREATINE PHOSPHOKINASE [6]: 255 u/L
CREATININE [6]: 0.13 mg/dL
GLUCOSE [6]: 97.33 mg/dL
LACTATE DEHYDROGENASE [6]: 293 u/L
LIPASE [6]: 38.67 u/L
PHOSPHORUS [6]: 9.33 mg/dL
POTASSIUM [6]: 7.02 MEQ/L
SODIUM [6]: 147.95 MEQ/L
TOTAL BILIRUBIN [6]: 0.33 mg/dL
TOTAL PROTEIN [6]: 6.23 G/DL
URIC ACID [6]: 1.27 mg/dL
